“Also recorded” adds a separate entry of the source.
Columns and labels:
[1] = test system: retinal ganglion cells (RGC); assay: Stereological analysis of RGC numbers after rAION (ON stroke); type: in vivo, rat
Description: Stereological analysis of RGC numbers in naïve and rAION induced rat retinae treated with either PGJ2 or Vehicle (PBS). Animals were injected IV 1Xd for 3 days with either 100 mg/kg PGJ2 or PBS-vehicle. Animals were euthanized and retinae analyzed 30 days post-rAION induction. Average numbers based on 4 retinae/group; RGC stereology derived from Brn3a (+) RGC immunostaining.
Statistical analysis of 15-deoxy delta (12,14) PGJ2 administration to rats after optic nerve (ON) stroke. […] The ordinate represents the number of retinal ganglion cells in each retina. The abscissa represents the number of fields of cells counted to reach a statistically valid number as determined by the field of stereology. The green line represents the typical number of retinal ganglion cells in the untreated (naïve; no stroke) rat retina. The response of rat retina and optic nerve to vehicle treatment is shown in yellow. The response of PGJ2 treated animals is shown in Blue.
rAION-associated cell loss is analyzed using stereological analysis.
Rats were used for this experiment and ON stroke was administered to a 75% predicted loss of RGCs by the method of Bernstein et al., 2003, supra. RGC's were counted in each retina in the untreated (naïve; no stroke) and rats with rAION treated with PGJ2.

optic nerve (ON) edema = assay: ON edema after rAION by direct fundus observation in the living animal; type: in vivo, rat; details: post-infarct administration (systemic and intravitreal), first 3 days post-induction; 1-3 days following rAION
Description: PGJ2-treated animals have 72.4% of the number of naïve RGCs compared with 34.3 for vehicle treated animals (black bar, FIG. 2).

[2] = test system: ED-1(+) extrinsic macrophages; assay: Extrinsic macrophage (ED-1(+)) recruitment into ON after rAION induction; type: in vivo, rodent
Description: The present inventor has evaluated the location of early ON-macrophage activity following rAION induction, using antibodies for both general cellular inflammation (IBA-1) and extrinsic macrophages (detected by antibody to ED-1). […] Few, if any extrinsic macrophages are present in normal uninfarcted ON (results not shown). Following rAION induction, ED-1(+) extrinsic macrophages enter the ON and cluster in the primary ischemic lesion site immediately behind the retina/ON junction. Little extrinsic macrophage infiltration occurs >250 microns post-ON/retina junction. […] Control (vehicle treated animals) show a similar pattern (data not shown). […] Extrinsic macrophages extend beyond the initial lesion site, even during early axonal degeneration occurring 6 days post-induction. Thus, it is possible to administer intraventricular GM-CSF to recruit extrinsic macrophages into the ON following rAION, and determine whether the macrophage recruitment approach is useful to enhancing ON-axonal repair and regeneration following ON infarct.

Compound | RGC survival ([1]; 30 days post-rAION induction) | number of RGCs relative to naïve RGCs ([1]; rat rAION, IV 1Xd for 3 days, 100 mg/kg, 30 days post-rAION induction, Brn3a(+) RGC stereology) [%] | preservation of the neurons whose axons comprise the optic nerve ([1]; rats, ON stroke to a 75% predicted loss of RGCs, PGJ2 treatment after stroke) | ON edema (optic nerve (ON) edema) | numbers of ED-1(+) cells in ON ([2]; 1 ug stereotactically injected into the superior colliculus, 6 days post-induction, vehicle controls show a similar pattern) | recruitment of ED-1(+) cells in rAION-induced ONs ([2]; intraventricular injection, data not shown) | ability to recruit extrinsic macrophages ([2]; rAION, IBA-1 and ED-1 antibodies, data not shown)
CCCCC/C=C/C=C1/C(=O)C=C[C@@H]1C/C=C\CCCC(=O)O [PGJ2, 15 deoxy delta 12,14 prostaglandin J2] | increased RGC survival | 72.4 | 35-50% | reduced gross ON edema; also recorded: reduces ON edema | – | – | –
GM-CSF: Granulocyte-Macrophage Colony Stimulating Factor; directly activates macrophages and recruits extrinsic macrophages | – | – | – | – | decreased numbers of ED-1(+) cells | significantly enhanced recruitment of ED-1(+) cells | has the ability to recruit extrinsic macrophages
